The numbers were not newly measured in patent US20180221315A1, “COMBINATION THERAPY USING ACAMPROSATE AND D-CYCLOSERINE” (Confluence Pharmaceuticals, LLC, priority 2015, published 2018), which cites them from elsewhere.

The test system of data set [1] is cognitive impairment produced by hippocampal lesions, anticholinergic agents, and early social deprivation. Conditions: single dose.
Data set [2] concerns extinction of conditioned fear, maze tasks, visual recognition memory.
Data set [3] concerns the target NR1 NMDA receptor subunit (strychnine-insensitive glycine binding site) (Homo sapiens, UniProt Q05586). Conditions: partial agonist at glycine site of NMDA receptor; relative to glycine alone.

For the compound `N[C@@H]1CONC1=O` [DCS, D-4-amino-3-isoxazolidone], the “effect on cognitive impairment in animal models” value in data set [1] is given as “reversed cognitive impairment”. Also, the “effect on learning and memory in healthy animals” value in data set [2] is “enhanced extinction of conditioned fear, performance on maze tasks, and visual recognition memory”. In data set [3], the “receptor activation, level of maximum stimulation during exposure to glycine alone” value is 40-50%.
